Data: article PMC4609890, “Discovery of novel small molecule modulators of Clavibacter michiganensis subsp. michiganensis” (Frontiers in Microbiology, 2015)
Values after ≈ are worked out from the molar mass of the structure shown.

What was measured:
[1] = system: Clavibacter michiganensis subsp. michiganensis (Cmm); assay: Resistance evaluation by sequential passage at sub-lethal doses; assay type: cell-based; settings: 15 passages in liquid NBY at 0.75X MIC
Description: (§1) Single step and sequential passage resistance assays were performed as described previously with few modifications ([Ling et al., 2015]). Eleven of the 12 top hit compounds were tested in this experiment and one could not be resynthesized. […] The MBCs for each of these compounds were determined as described previously ([Ling et al., 2015]).
Clavibacter michiganensis subsp. michiganensis cultures grown in NBY broth medium at 28°C for 24 h were suspended in fresh NBY broth and normalized to an OD600 of 0.01 (5 × 10^6 CFU/ml). One-hundred microliters fresh culture was transferred to duplicate wells of a 96-well microtiter plate each containing 0.75× MIC of a test compound (concentration allowing >50% growth inhibition). Cmm cultured in 20 μg/ml chloramphenicol, 50 μg/ml kanamycin, or 2% DMSO, or non-amended NBY broth were used as controls. The bacteria were incubated at 28°C, 150 rpm, for 24 h in the dark. Following incubation, plates were centrifuged at 2,100 × g for 5 min at room temperature. The supernatant was discarded, bacteria were resuspended in 100 μl fresh NBY and transferred into a new 96-well plate containing 0.75× MIC of the same small molecule. This procedure was repeated 14 times. Following 15 passages, bacterial suspensions were assessed for resistance to the test compound by assessing MIC and MBC as noted above.

[2] = system: Clavibacter michiganensis subsp. michiganensis (Cmm); assay: Resistance evaluation by single step at a lethal dose; assay type: cell-based; settings: 5 days on NBY agar with 2X MIC, 1 × 10^9 CFU
Description: as §1
Cmm grown in NBY medium at 28°C for 48 h was centrifuged at 4,700 × g for 15 min at room temperature. Supernatant was discarded and bacteria were resuspended in sterile water to a concentration of 2 × 10^10 CFU/ml). Compounds (2× MIC) were mixed with […] of molten NBY agar medium and transferred to duplicate wells of a 24-well culture plate. Agar in the plate was allowed to solidify in the dark. Fifty microlitre of Cmm culture (1 × 10^9 CFU) was added to test wells, dried in the dark at room temperature, and incubated at 28°C for 5 days in the dark. Bacteria spread on NBY agar with 50 μg/ml kanamycin or NBY agar itself was used as positive and negative controls, respectively. After 5 days of incubation, any colonies that developed were assessed for resistance to the test compounds by determining MIC and the MBC as noted above.

[3] = system: Clavibacter michiganensis subsp. michiganensis (Cmm); assay: Minimum bacteriocidal concentration (MBC) for Cmm; assay type: cell-based; settings: read-out: MBCs
Description: (§2) Seventy-seven selected compounds were re-ordered from ChemBridge in a 96-well format as a powder. The compounds were dissolved in 100 μl DMSO and stored at -80°C until used. […] In addition, ability of Cmm to develop resistance to selected compounds was tested.
as §1

[4] = system: Clavibacter michiganensis subsp. michiganensis (Cmm); assay: Minimum inhibitory concentration (MIC) for Cmm growth; assay type: cell-based; settings: read-out: MICs
Description: Seventy-seven selected compounds were re-ordered from ChemBridge in a 96-well format as a powder. The compounds were dissolved in 100 μl DMSO and stored at -80°C until used. […] In addition, ability of Cmm to develop resistance to selected compounds was tested. […]

[5] = system: Bacillus subtilis GB03; assay: Secondary screen kinetic growth inhibition of B. subtilis; assay type: cell-based; settings: 200 μM
Description: as §2
(§3) Screening for growth inhibition of Cmm strains, plant beneficial bacteria and human gut bacteria was set up similarly to the initial screen using 1 μl of 2 μmol suspensions of each compound. Plates were incubated in a Sunrise^TM Tecan microplate reader for kinetic measurement of growth every 15 min for 24 h. Growth curves were analyzed in DB interface software and the effect of each compound on growth was evaluated based on the ratio of area under growth curve (compound/control) as “no significant effect (ratio > 0.5),” “inhibition (ratio ≤ 0.5),” “static (ratio = 0, bacterial growth revived after streak on a fresh NBY plate)” and “cidal (ratio = 0, bacterial growth not revived)” ([Wallace et al., 2011]).

[6] = system: Cmm strains; assay: Secondary screen kinetic growth inhibition of Cmm strains; assay type: cell-based, Clavibacter michiganensis subsp. michiganensis; settings: kinetic growth 24 h
Description: as §2, §3

[7] = system: Gram-negative bacteria tested; assay: Secondary screen kinetic growth inhibition of Gram-negative bacteria; assay type: cell-based; settings: 200 μM
Description: as §2, §3

[8] = system: plant beneficial bacteria and human gut bacteria; assay: Secondary screen on plant beneficial bacteria and human gut bacteria (antibacterial spectrum); assay type: cell-based; settings: compared with other 11 compounds; data not shown
Description: as §2, §3

[9] = system: Cmm BL-Cmm17; assay: Bioluminescent Cmm tomato seedling infection assay; assay type: in vivo; settings: seeds infested with BL-Cmm17, compound applied to seed, 8-days-old seedlings plated
Description: A bioluminescent Cmm strain, BL-Cmm17, was used to monitor the effect of selected small molecules on Cmm infection of tomato seedlings in vivo ([Xu et al., 2010]). Briefly, tomato seeds (cv. OH9242) were infested by soaking in BL-Cmm17 suspension (10^8 CFU/ml) in a 100-ml sterile beaker. The beaker was placed in a Nucerite Desiccator (Nalge Sybron Corporation, Rochester, NY, USA), and a vacuum was applied for 5 min using an Air Cadet pump (Barnant, Barrington, IL, USA) with a maximum of 18 lb/in^2 pressure. Seeds treated similarly with sterilized water were used as controls. After inoculation, seeds were air-dried and one seed was placed in a 1.2 ml library tube containing 400 μl of 1% water agar; tubes were placed in wells of a 96-well plate. The selected compound (1 μl of 2 μmol in 50 μl water) was applied to each seed and the plate was incubated at 25°C under 8 h/16 h light/dark conditions. There were three replicate seeds/plate per treatment. Bioluminescence images were taken using an in vivo imaging system (IVIS Model 100; PerkinElmer, Waltham, MA, USA) 3 and 8 days later. Eight-days-old seedlings were ground in potassium phosphate buffer and extracts were serially diluted and plated on NBY to assess the presence of Cmm.

| SMILES | Resistant colonies after growth at sub-lethal (0.75X MIC) concentration [1] | Resistant colonies after incubation at lethal (2X MIC) concentration [2] | MBC [3] [µM] | MIC [4] [µM] | Effect on B. subtilis growth [5] | Effect on Cmm growth [6] | Effect on growth of Gram-negative bacteria tested [7] | Antibacterial spectrum [8] | Cmm growth reduction in tomato seedlings [9] |
| --- | --- | --- | --- | --- | --- | --- | --- | --- | --- |
| COc1cccc(-c2ccccc2NC(=O)C2CCN(Cc3ccc(OC)cc3F)CC2)c1 [Compound 1] | None | None | 25 (≈ 11.2 µg/mL) | 25 (≈ 11.2 µg/mL) |  |  |  |  |  |
| CN(Cc1nc2ccccc2[nH]1)Cc1c[nH]nc1-c1ccc(-c2ccccc2)cc1 [Compound 2] | None | None | 50 (≈ 19.7 µg/mL) | 25 (≈ 9.84 µg/mL) |  |  |  |  |  |
| Cc1cc(O)ccc1Nc1nc(-c2cccs2)cs1 [Compound 3] | None | None | 50 (≈ 14.4 µg/mL) | 50 (≈ 14.4 µg/mL) | cidal (cidal (ratio = 0, bacterial growth not revived)) | cidal (cidal (ratio = 0, bacterial growth not revived)) | not |  |  |
| CC(C)Cc1ccc(CN2CCCC(NC(=O)CCn3c(CO)nc4ccccc43)C2)cc1 (stereo not drawn) [Compound 4] | None | None | 100 (≈ 44.9 µg/mL) | 100 (≈ 44.9 µg/mL) |  |  |  |  |  |
| CC1CCC(C(C)C)C(OC(=O)Cn2c[n+](CC(=O)OC3CC(C)CCC3C(C)C)c3ccccc32)C1 (stereo not drawn) [Compound 5] | None | None | 5 | 5 |  |  |  | broader antibacterial spectrum |  |
| O=C(Nc1cccc(-c2cscn2)c1)C1CCN(C/C=C/c2ccc(F)cc2)CC1 [Compound 6] | None | None | 50 (≈ 21.1 µg/mL) | 50 (≈ 21.1 µg/mL) |  |  |  |  |  |
| Cc1ccnc(Nc2nc(-c3ccc(O)c(O)c3)cs2)c1 [Compound 7] | None | None | 50 (≈ 15 µg/mL) | 50 (≈ 15 µg/mL) | cidal (cidal (ratio = 0, bacterial growth not revived)) | cidal (cidal (ratio = 0, bacterial growth not revived)) | not |  |  |
| CCOC(=O)N1CCN(CC(O)COc2ccc(C3CCCCC3)cc2)CC1 (stereo not drawn) [Compound 8] | None | None | 50 (≈ 19.5 µg/mL) | 50 (≈ 19.5 µg/mL) |  |  |  |  |  |
| CCCOc1ccc(C(=O)C2=C(O)C(=O)N(CCCN(C)C)C2c2ccc(Cl)cc2)cc1C (stereo not drawn) [Compound 9] | None | None | 100 (≈ 47.1 µg/mL) | 50 (≈ 23.5 µg/mL) |  |  |  |  |  |
| COc1cccc(-c2ccc(NC(=O)C3CCCN(Cc4cccc(O)c4)C3)cc2)c1 (stereo not drawn) [Compound 12] | None | None | 25 (≈ 10.4 µg/mL) | 12.5 (≈ 5.21 µg/mL) |  |  |  |  | over 0.5 log |
